Results published in patent EP4335452A1, “PHARMACEUTICAL COMPOSITION FOR ENHANCING ANTICANCER EFFECT OF ANTICANCER DRUG” (L-Base Co., Ltd., priority 2021, dated 2024).
Ends that are not written are not given here.

What was measured:
[1] = test system: lung cancer cell line H1975; test: MTT assay, cell viability, lung cancer cell line H1975; assay type: cell-based; settings: 48 hours
[2] = test system: breast cancer cell line HCC1937; test: MTT assay, cell viability, breast cancer cell line HCC1937; assay type: cell-based; settings: Olaparib 2.5 µM alone, 24 hours, FIG. 4B
[3] = test system: H820 lung cancer cell line; test: Heterotransplant lung cancer animal model (H820), tumor growth; assay type: in vivo; settings: H820 nude mice; Osimertinib single administration, 2.5 mpk orally daily; FIG. 6A
Procedure: The test substances were administered intravenously and orally 7 times at 2-day intervals.
Nude mice transplanted with H820 lung cancer cell line, an animal model of lung cancer described in the "Experimental Materials and Methods," was treated 7 times at a two-day interval for 14 days with 3-PhPh-[…] at a dose of 10 mpk, and Osimertinib was orally administered daily at 2.5 mpk. Then, the growth of the tumor was compared.

H1975 cell line = test: Heterotransplant lung cancer resistance animal model (H1975), tumor growth after Osimertinib resistance; assay type: in vivo, Balb/C nude mice
H1975/OR = test: MTT assay, cell viability, H1975/OR; assay type: cell-based; settings: Osimertinib 2.5 µM alone, 68 hours, FIG. 1G
Procedure: (§1) Specifically, cells were seeded at 2 × 10^3/100 µl per well on a 96-well plate, and after culturing for 24 hours, the compound according to the present invention was administered; 4 hours later, anticancer drugs were treated to each cancer cell. The treatment concentration and treatment time of the compound and anticancer drug are specifically described in the embodiment. After completing the treatment of the compound and anticancer drug, CellTiter-96® reagent (Promega Co., USA) was reacted at 5% CO2, 37°C after adding 10 µl per well. After 3 hours, absorbance was measured at 490 nm using a spectrophotometer (SPECTROstar^Nano, BMG).

[4] = test system: lung cancer cell line H1975; test: MTT assay, cell viability, lung cancer cell line H1975; assay type: cell-based; settings: Ac-AQTGTGKT 10 µM alone, 48 hours, FIG. 1C
Procedure: as §1

For `Nc1nc2[nH]cc(CCc3ccc(C(=O)N[C@@H](CCC(=O)O)C(=O)O)cc3)c2c(=O)[nH]1` [Alimta, Alimta (Pemetrexed)], the “cell viability decreased compared to the control group” value (“cell viability decreased” for short) ([1]; Alimta 0.2 µM alone, FIG. 1E) was “about 6%”.

For `O=C(c1cc(Cc2n[nH]c(=O)c3ccccc23)ccc1F)N1CCN(C(=O)C2CC2)CC1` [Olaparib], the “decrease in cell viability compared to the control group” value [2] was “no decrease in cell viability”.

For `C=CC(=O)Nc1cc(Nc2nccc(-c3cn(C)c4ccccc34)n2)c(OC)cc1N(C)CCN(C)C` [Osimertinib], the “cell viability decreased” value ([1]; Osimertinib 1 µM alone, FIG. 1B) was “about 5%”, the “tumor growth reduced compared to the control group (PBS administered group)” value [3] was 46% and the “size of the tumor on the day of termination of administration (average)” value (H1975 cell line; H1975, after Osimertinib resistance, Osimertinib 5 mpk orally daily + PBS intravenously at a two-day interval, FIG. 6B) was 692.6 mm^3. For the same compound, the “tumor viability rate (tumor size on the 28th day versus the last measured tumor size)” value (H1975 cell line; H1975 Balb/C nude mice, Osimertinib 5 mpk orally daily, regrowth from the 24th day, judged as acquired resistance) was “over 50%” and the “cell viability decreased” value (H1975/OR) was “about 7%”.

For Ac-AQTGTGKT, the “cell viability decreased” value [4] was “about 14%”.
